Data from ChEMBL document CHEMBL1772976, “Bathymodiolamides A and B, ceramide derivatives from a deep-sea hydrothermal vent invertebrate mussel, Bathymodiolus thermophilus” (J Nat Prod, 2011).

What was measured:
MCF7 = assay: Cytotoxicity against human MCF7 cells after 48 hrs by MTT assay; format: functional, cell-based; details: MCF7, 48 h
HeLa = assay: Cytotoxicity against human HeLa cells after 48 hrs by MTT assay; format: functional, cell-based

SMILES	IC50 (MCF7) [nM]	IC50 (HeLa) [nM]
CCC/C=C\C/C=C\CCC(=O)O[C@@H](COC(=O)CCCCCCCCCCCCC)[C@H](O)[C@H](CO)NC(=O)CCCCCCCCCCC [BATHYMODIOLAMIDE B]	200	500
CCC/C=C\C/C=C\C/C=C\CCCCC(=O)O[C@@H](COC(=O)CCCCCCCCCCCCCCC)[C@H](O)[C@H](CO)NC(=O)CCCCCCCCCCC [BATHYMODIOLAMIDE A]	100	400
